From paper PMC10218109, “Old Drug, New Delivery Strategy: MMAE Repackaged” (International Journal of Molecular Sciences, 2023)

Experiments:
[1] = biological target: T1, prostate specific membrane antigen (PSMA) (Homo sapiens, UniProt Q04609); test: competitive radioligand binding on PSMA-positive LNCaP cells vs […]Ga-PSMA-10; format: cell-based
T1 construct: gene FOLH1

[2] = biological target: T1, prostate specific membrane antigen (PSMA); test: competitive radioligand binding on PSMA-positive LNCaP cells (reference ligand); format: cell-based

T1 sequence (Q04609 whole entry): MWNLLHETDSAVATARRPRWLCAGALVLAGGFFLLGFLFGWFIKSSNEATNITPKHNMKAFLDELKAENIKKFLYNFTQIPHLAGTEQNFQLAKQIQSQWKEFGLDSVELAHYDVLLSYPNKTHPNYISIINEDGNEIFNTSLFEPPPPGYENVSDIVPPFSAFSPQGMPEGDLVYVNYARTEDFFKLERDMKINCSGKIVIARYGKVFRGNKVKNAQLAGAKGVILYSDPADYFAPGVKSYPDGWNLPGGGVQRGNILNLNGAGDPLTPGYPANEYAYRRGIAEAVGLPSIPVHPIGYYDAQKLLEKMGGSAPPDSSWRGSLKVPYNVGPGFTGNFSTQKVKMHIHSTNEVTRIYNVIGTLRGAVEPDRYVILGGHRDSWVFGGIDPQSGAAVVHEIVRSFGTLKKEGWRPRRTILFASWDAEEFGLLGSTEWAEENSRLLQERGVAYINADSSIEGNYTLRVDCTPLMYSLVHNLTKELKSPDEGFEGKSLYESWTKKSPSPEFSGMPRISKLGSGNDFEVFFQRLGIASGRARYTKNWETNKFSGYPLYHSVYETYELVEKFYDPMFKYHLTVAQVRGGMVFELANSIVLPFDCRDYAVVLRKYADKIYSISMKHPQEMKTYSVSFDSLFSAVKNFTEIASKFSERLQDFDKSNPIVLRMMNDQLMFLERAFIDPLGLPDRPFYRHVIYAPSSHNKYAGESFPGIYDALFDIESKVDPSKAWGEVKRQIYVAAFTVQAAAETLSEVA

IC50 [1] | SMILES | IC50 [2]
21.5 ± 1.9 nM | NC[C@H]1CC[C@H](C(=O)N[C@@H](Cc2ccc3ccccc3c2)C(=O)NCCCC[C@H](NC(=O)N[C@@H](CCC(=O)O)C(=O)O)C(=O)O)CC1 [KuE-617] | 
 | O=C(O)CCc1ccc(O)c(CN(CCN(CC(=O)O)Cc2cc(CCC(=O)NCCCCCC(=O)NCCCC[C@H](NC(=O)N[C@@H](CCC(=O)O)C(=O)O)C(=O)O)ccc2O)CC(=O)O)c1 [PSMA-11] | 17.4 ± 1.6 nM
 | O=C(O)CC[C@H](NC(=O)N[C@@H](CCCCNC(=O)[C@H](Cc1ccc2ccccc2c1)NC(=O)[C@H]1CC[C@H](CNC(=O)CN2CCN(CC(=O)O)CCN(CC(=O)O)CCN(CC(=O)O)CC2)CC1)C(=O)O)C(=O)O [PSMA-617] | 15.1 ± 3.8 nM
